# Assays:
# [1] = Halogenase activity of Dsg205 and Dsg701 against 600 member compound library, LC-MSMS assay; format: biochemical; details: substrate of Dsg205/Dsg701, enzyme not specified
# Dsg407 = assay: Substrates accepted by Dsg407; details: purified Dsg407, NaBr or NaI, pH 7.2
# [2] = system: tryptophan 5-halogenase PyrH; details: natural substrate tryptophan; based on product production; cited from earlier work
# [3] = system: tryptophan 7-halogenase RebH; details: natural substrate tryptophan; based on product production; cited from earlier work
Structure (SMILES),accepted as substrate by Dsg407 (Dsg407),also measured
Nc1cccc2cccnc12 [8-quinolamine],,"conversion of substrate, estimated [1]: ~75%"
N[C@H](Cc1c[nH]c2ccccc12)C(=O)O [D-tryptophan],accepts,
N[C@@H](Cc1c[nH]c2ccccc12)C(=O)O [tryptophan],,Kcat [2]: 0.0417 ± 0.0067 s⁻¹; Km [3]: 18.7 ± 1.3 µM
"c1cc2cc[nH]c2cn1 [Dsg 6-azaindole, 6-azaindole]",also a substrate of Dsg407,
N[C@@H](Cc1c[nH]c2ccccc12)C(=O)O [L-tryptophan],not,

# Reference: patent US12456543B2, “Enzymes” (UNIVERSITY COURT OF THE UNIVERSITY OF ST ANDREWS, priority 2018, dated 2025)
